Test system: NF2‐associated or sporadic VS or meningiomas
Assay: Pilot 1 tumor volumetric measurement by MRI
Format: in vivo, human
[1] = Patient 1.4, 275 days on AR‐42, Left IAC Schwannoma
[2] = Patient 1.4, 275 days on AR‐42, Left posterior fossa Meningioma
[3] = Patient 1.4, Left IAC Schwannoma
[4] = Patient 1.4, Left posterior fossa Meningioma
[5] = Patient 1.4, Let foramen magnum Meningioma
[6] = Patient 1.4, Right IAC Schwannoma
[7] = Patient 1.4, Right anterior falx Meningioma
[8] = Patient 1.5, 134 days on AR‐42, Right petroclinoid Meningioma
[9] = Patient 1.5, Right petroclinoid Meningioma
[10] = Patient 1.6, 58 days on AR‐42, Right IAC Schwannoma
[11] = Patient 1.6, Left IAC Schwannoma
[12] = Patient 1.6, Right IAC Schwannoma
[13] = Patient 1.7, Left IAC Schwannoma
[14] = Patient 1.7, Left prepontine cistern Meningioma
[15] = post‐treatment vs on AR‐42, of 11
[16] = pre‐treatment to on‐treatment, of 15

Structure (SMILES): CC(C)[C@H](C(=O)Nc1ccc(C(=O)NO)cc1)c1ccccc1 [AR‐42]
- Est. annual growth rate Post Rx (Patient 1.2, Right intradural C1 Meningioma): 10%
- % Volume growth on Rx [1]: 60%
- On Rx response [1]: PD (progressive disease (>20% increase in volume))
- % Volume growth on Rx [2]: −24%
- On Rx response [2]: PR (partial response (>20% decrease in volume))
- % Volume growth on Rx (Patient 1.4, 275 days on AR‐42, Let foramen magnum Meningioma): −19%
- % Volume growth on Rx (Patient 1.4, 275 days on AR‐42, Right IAC Schwannoma): 9%
- % Volume growth on Rx (Patient 1.4, 275 days on AR‐42, Right anterior falx Meningioma): 0%
- Change in GR Pre to On Rx (%) [3]: −10%
- Change in GR Pre to post Rx [3]: 20%
- Est. annual growth rate On Rx (%) [3]: 92%
- Est. annual growth rate Post Rx [3]: 122%
- Change in GR Pre to On Rx (%) [4]: −170%
- Change in GR Pre to post Rx [4]: −125%
- Est. annual growth rate On Rx (%) [4]: −37%
- Est. annual growth rate Post Rx [4]: 8%
- Change in GR Pre to On Rx (%) [5]: −158%
- Change in GR Pre to post Rx [5]: −138%
- Est. annual growth rate On Rx (%) [5]: −30%
- Est. annual growth rate Post Rx [5]: −10%
- Change in GR Pre to On Rx (%) [6]: −133%
- Est. annual growth rate On Rx (%) [6]: 18%
- Change in GR Pre to On Rx (%) [7]: 0%
- Change in GR Pre to post Rx [7]: 0%
- Est. annual growth rate On Rx (%) [7]: 0%
- Est. annual growth rate Post Rx [7]: 0%
- % Volume growth on Rx [8]: 104%
- On Rx response [8]: PD (progressive disease (>20% increase in volume))
- Change in GR Pre to On Rx (%) [9]: 41%
- Change in GR Pre to post Rx [9]: −232%
- Est. annual growth rate On Rx (%) [9]: 241%
- Est. annual growth rate Post Rx [9]: −32%
- % Volume growth on Rx (Patient 1.6, 58 days on AR‐42, Left IAC Schwannoma): 15%
- % Volume growth on Rx [10]: 40%
- On Rx response [10]: PD (progressive disease (>20% increase in volume))
- Change in GR Pre to On Rx (%) [11]: 64%
- Change in GR Pre to post Rx [11]: 32%
- Est. annual growth rate On Rx (%) [11]: 93%
- Est. annual growth rate Post Rx [11]: 61%
- Change in GR Pre to On Rx (%) [12]: 187%
- Est. annual growth rate On Rx (%) [12]: 245%
- % Volume growth on Rx (Patient 1.7, 10 days on AR‐42, Left IAC Schwannoma): 4%
- % Volume growth on Rx (Patient 1.7, 10 days on AR‐42, Left prepontine cistern Meningioma): −9%
- Change in GR Pre to On Rx (%) [13]: 13%
- Est. annual growth rate On Rx (%) [13]: 50%
- Change in GR Pre to On Rx (%) [14]: −120%
- Est. annual growth rate On Rx (%) [14]: −113%
- Share of tumors with stable growth (estimated percent annual growth rates): 20%
- Meningiomas progressed on AR‐42 (of 7 meningiomas): three
- Meningiomas stable or regressed on AR‐42 (of 7 meningiomas): Four
- VS progressed on AR‐42 (of 8 VS): three
- VS stable on AR‐42 (of 8 VS): Five
- Tumors with stable disease on AR‐42 (of 15 evaluable tumors): eight
- Share of tumors with partial response (of 15 tumors): 7%
- Decrease in volume of the tumor with partial response (on AR‐42): 24%
- Duration of partial response (posterior fossa meningioma of Patient 1.4): 3 years
- Tumors that rebounded in growth rate (increased more than 20%) after termination [15]: 4
- Tumors with growth rate decreased after termination [15]: 3
- Tumors with growth rate not changed after termination [15]: 4
- Tumors with increased growth rates (>20% increase) [16]: four
- Tumors with reduced growth rates (>20% decrease in growth rate) [16]: eight
- Tumors with stable growth rates (± <20% change) [16]: three
- Median reduction in annual growth rate (pre‐treatment to on‐treatment, P = 0.259): −54%
